Results published in patent US10988456B2, “O-aminoheteroaryl alkynyl-containing compound, preparation method therefor, and use thereof” (SHANGHAI INSTITUTE OF MATERIA MEDICA, CHINESE ACADEMY OF …, priority 2017, dated 2021).
Entries after “also recorded” stand apart in the source; their conditions may differ.

How the values were obtained:
FGFR1 = FGFR1 (Homo sapiens, UniProt P11362); assay: Inhibition of receptor tyrosine kinase activity at molecular level (ELISA, Poly(Glu,Tyr)4:1 substrate phosphorylation); format: biochemical; settings: 10 nM compound; average of two independent experiments
KDR = KDR (Homo sapiens, UniProt P35968); assay: as above; format: biochemical; settings: 10 nM compound; average of two independent experiments
RET = RET (Homo sapiens, UniProt P07949); assay: as above; format: biochemical
In short: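 Poly(Glu,Tyr)4:1-coated plates (20 μg/mL) were incubated with recombinant kinase, compound and 5 μM ATP (final) in HEPES pH 7.4 buffer with MgCl2/MnCl2/Na3VO4/DTT for 1 h at 37 °C. Phosphotyrosine was detected with PY99 and HRP anti-mouse IgG plus OPD at 490 nm. IC50 came from four-parameter regression.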

Ret (V804M) = molecular target: T1, Ret (V804M) (Homo sapiens, UniProt P07949, V804M); assay: Inhibition of RET-related mutant enzyme activity (ELISA); format: biochemical; settings: measured twice, Mean ± SD
T1 construct: purchased
Procedure: Enzyme reaction substrate Poly(Glu, Tyr)4:1 was diluted with potassium-free PBS (10 mM sodium phosphate buffer, 150 mM NaCl, pH 7.2-7.4) to 20 μg/mL. The enzyme label plate was coated with 125 μL/well. The reaction was conducted under 37° C. for 12-16 hours. After the liquid was removed from the wells, the plate was washed three times with 200 μL/well of T-PBS (PBS containing 0.1% Tween-20), each for 5 minutes. The enzyme plate was dried in 37° C. dryer for 1-2 hours.
50 μL ATP solution diluted with buffer (50 mM HEPES pH 7.4, 50 mM MgCl2, 0.5 mM MnCl2, 0.2 mM Na3VO4, 1 mM DTT) to a final concentration of 5 μM was added into each well. The compound was diluted with DMSO to a suitable concentration (1 μL/well) or the well contained the corresponding concentration of DMSO (negative control well) Then various kinase recombinant proteins diluted with 49 μL of reaction buffer was added to initiate the reaction. Each experiment required duplicate enzyme-free control well. The reaction was carried out for 1 hour on a 37° C. Shaker (100 rpm). […] The reaction was quenched with 2M H2SO4 (50 μL/well), and read at 490 nm using a tunable microplate reader SPECTRA MAX 190.
The inhibition ratio of the sample was determined by the following formula: […]
The IC50 values were obtained via four-parameter regression analysis using the software supplied with the microplate reader. […]

[1] = tested on: human lung cancer NCI-H1581 xenografts; assay: Growth of subcutaneous xenografts of human lung cancer NCI-H1581 in nude mice; format: in vivo; settings: for Relative tumor volume RTV (mean ± SD): NCI-H1581, 50 mg/kg orally once a day; for Weight (g, mean ± SD): NCI-H1581 tumor-bearing mice, 50 mg/kg orally once a day
Procedure: (§1) The diameter of the subcutaneously implanted tumor in nude mice was measured by a vernier caliper. […] In the compound HuFGFR267 50 mg/kg group, the compound was formulated with 0.5% methylcellulose (MC) to the required concentration before use. The formulation of compound was prepared once a week, and orally administered once a day for 14 days. The positive control drug AZD4547 was diluted to the required concentration with water for injection containing 1% Tween 80 before use. The formulation of AZD4547 was prepared once a week, and orally administered once a day for 14 days. In the solvent control group, an equal amount of water for injection was administrated.

[2] = tested on: human gastric cancer SNU-16 xenografts; assay: Growth of subcutaneous xenografts of human gastric cancer SNU-16 in nude mice (HuFGFR267 study); format: in vivo; settings: for relative tumor proliferation rate T/C: day 21; for Weight (g, mean ± SD): SNU-16 tumor-bearing mice
Procedure: as §1, with “The formulation of compound was prepared once a week, and orally administered once a day for 14 days.” left out, “The formulation of AZD4547 was prepared once a week, and orally administered once a day for 14 days.” left out

Sequence of RET (P07949 29-1114): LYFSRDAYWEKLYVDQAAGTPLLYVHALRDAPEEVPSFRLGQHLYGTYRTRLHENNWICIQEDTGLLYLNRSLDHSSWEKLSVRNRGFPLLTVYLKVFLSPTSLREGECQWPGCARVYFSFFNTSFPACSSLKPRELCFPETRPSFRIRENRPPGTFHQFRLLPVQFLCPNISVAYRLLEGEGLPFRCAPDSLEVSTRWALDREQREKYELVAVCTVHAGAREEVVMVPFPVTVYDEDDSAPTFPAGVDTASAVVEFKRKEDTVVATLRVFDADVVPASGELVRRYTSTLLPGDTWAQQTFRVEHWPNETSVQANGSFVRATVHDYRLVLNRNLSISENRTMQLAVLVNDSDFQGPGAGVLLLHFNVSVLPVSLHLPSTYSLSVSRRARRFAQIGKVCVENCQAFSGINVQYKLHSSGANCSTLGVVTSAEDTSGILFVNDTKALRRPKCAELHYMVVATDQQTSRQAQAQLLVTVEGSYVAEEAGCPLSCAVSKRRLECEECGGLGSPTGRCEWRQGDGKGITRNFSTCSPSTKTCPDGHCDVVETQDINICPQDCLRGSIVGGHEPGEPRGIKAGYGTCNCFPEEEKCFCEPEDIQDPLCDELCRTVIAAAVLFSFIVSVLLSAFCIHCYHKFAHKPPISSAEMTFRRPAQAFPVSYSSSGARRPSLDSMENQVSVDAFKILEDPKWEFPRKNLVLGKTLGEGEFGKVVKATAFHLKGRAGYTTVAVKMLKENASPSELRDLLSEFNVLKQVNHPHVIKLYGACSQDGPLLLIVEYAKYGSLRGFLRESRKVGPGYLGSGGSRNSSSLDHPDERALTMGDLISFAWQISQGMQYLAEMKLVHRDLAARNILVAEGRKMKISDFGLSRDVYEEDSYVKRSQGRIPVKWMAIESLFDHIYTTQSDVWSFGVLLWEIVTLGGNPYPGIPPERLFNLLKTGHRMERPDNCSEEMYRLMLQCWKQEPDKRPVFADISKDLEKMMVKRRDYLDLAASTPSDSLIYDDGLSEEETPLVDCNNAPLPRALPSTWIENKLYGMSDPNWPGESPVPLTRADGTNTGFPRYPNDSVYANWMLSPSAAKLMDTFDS
T1 sequence (P07949 29-1114 V804M): as the sequence (P07949 29-1114) above, with V776M counted along it
Sequence of KDR (P35968 20-1356): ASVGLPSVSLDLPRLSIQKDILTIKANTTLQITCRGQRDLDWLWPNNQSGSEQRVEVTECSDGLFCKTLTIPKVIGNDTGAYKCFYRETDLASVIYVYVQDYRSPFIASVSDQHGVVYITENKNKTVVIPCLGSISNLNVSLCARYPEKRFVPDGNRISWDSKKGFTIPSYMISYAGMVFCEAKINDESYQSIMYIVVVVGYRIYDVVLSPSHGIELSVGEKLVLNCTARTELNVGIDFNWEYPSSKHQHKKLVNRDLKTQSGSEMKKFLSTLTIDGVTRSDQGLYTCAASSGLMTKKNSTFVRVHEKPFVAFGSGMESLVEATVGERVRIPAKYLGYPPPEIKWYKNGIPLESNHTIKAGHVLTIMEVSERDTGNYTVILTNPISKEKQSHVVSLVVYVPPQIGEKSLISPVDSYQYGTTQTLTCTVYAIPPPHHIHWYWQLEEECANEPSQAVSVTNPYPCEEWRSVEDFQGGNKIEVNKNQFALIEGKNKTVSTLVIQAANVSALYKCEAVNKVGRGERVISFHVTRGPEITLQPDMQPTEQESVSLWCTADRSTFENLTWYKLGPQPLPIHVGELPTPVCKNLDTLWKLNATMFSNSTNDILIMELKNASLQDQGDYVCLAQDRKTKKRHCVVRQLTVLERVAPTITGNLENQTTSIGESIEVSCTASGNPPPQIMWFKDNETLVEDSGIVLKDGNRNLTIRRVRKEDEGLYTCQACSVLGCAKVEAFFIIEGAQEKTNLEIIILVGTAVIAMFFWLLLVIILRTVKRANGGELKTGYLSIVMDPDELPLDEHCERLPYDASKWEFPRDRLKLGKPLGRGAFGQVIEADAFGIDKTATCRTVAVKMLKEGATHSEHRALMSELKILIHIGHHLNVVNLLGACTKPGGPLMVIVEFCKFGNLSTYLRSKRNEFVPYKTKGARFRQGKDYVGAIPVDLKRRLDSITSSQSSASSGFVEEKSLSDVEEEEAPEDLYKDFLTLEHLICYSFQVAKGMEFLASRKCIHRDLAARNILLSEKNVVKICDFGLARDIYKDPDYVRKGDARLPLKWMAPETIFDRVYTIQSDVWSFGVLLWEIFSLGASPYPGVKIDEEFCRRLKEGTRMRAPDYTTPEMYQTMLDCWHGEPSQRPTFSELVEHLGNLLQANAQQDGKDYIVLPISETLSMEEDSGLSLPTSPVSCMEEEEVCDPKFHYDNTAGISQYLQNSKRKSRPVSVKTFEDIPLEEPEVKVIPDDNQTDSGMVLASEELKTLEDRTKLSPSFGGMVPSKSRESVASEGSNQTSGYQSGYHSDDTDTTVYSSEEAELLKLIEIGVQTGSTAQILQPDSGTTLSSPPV
Sequence of FGFR1 (P11362 22-822): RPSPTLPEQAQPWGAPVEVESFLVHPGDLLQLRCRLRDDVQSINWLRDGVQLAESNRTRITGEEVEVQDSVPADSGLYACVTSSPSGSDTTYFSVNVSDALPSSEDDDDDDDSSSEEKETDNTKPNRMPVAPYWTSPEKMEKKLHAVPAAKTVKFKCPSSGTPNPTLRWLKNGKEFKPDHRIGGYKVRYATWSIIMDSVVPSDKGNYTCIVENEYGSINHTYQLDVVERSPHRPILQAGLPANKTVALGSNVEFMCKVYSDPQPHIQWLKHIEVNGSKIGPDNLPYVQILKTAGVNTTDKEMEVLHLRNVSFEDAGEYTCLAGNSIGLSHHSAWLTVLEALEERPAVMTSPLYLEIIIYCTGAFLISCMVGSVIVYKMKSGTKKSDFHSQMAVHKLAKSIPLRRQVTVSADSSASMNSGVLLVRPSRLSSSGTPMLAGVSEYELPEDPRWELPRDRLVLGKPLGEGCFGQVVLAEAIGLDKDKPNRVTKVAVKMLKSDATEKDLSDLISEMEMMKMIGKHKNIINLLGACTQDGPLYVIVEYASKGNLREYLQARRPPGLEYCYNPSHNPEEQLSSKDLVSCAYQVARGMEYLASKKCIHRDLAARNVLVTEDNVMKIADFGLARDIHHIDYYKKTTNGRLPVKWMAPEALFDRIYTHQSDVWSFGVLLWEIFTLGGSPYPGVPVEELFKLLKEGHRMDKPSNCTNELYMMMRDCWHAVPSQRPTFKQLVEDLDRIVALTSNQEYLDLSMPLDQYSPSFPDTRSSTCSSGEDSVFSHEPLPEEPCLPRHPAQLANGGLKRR

With `CN1CCN(Cc2ccc(NC(=O)c3ccc(Cl)c(C#Cc4cccnc4N)c3)cc2C(F)(F)F)CC1` [Example 1, 3-(2-aminopyridine-3-ethynyl)-4-chloro-N-(4-((4-methylpiperazin-1-yl)methylene)-3-(trifluoromethyl)phenyl)benzamide] as the molecule, how does the “10 nM inhibition ratio FGFR1” value (FGFR1) read?
The value was 77.7.

And the “10 nM inhibition ratio KDR” value (KDR)?
Its value is 45.1.

And the “10 nM inhibition ratio RET” value (RET; 10 nM compound, average of two independent experiments)?
Its value is 87.6.

And the IC50 (RET; measured twice, Mean ± SD)?
The IC50 was 1.4 ± 0.6 nM.

What about the IC50 (Ret (V804M)) of the same molecule?
Its IC50 is 8.4 ± 1.7 nM.

What about the “body weight of tumor-bearing mice (in words)” value ([1]; NCI-H1581, 50 mg/kg orally once a day for 14 days) of the same molecule?
The value was “no significant change”.

And the “relative tumor proliferation rate T/C” value ([1]; NCI-H1581, 50 mg/kg orally once a day for 14 days, 14th day)?
Its value is 3.77%.

And the “Relative tumor volume RTV (mean ± SD)” value ([1]; d0)?
Its value is 1.00 ± 0.00.

And the “Relative tumor volume RTV (mean ± SD)” value ([1]; d3)?
Its value is 1.28 ± 0.40.

What about the “Relative tumor volume RTV (mean ± SD)” value ([1]; d7) of the same molecule?
The value was 1.33 ± 0.74.

What about the “Relative tumor volume RTV (mean ± SD)” value ([1]; d10) of the same molecule?
The value was 2.02 ± 1.10.

What about the “Relative tumor volume RTV (mean ± SD)” value ([1]; d14) of the same molecule?
Its value is 2.16 ± 1.41.

And the “animal deaths during the experiment” value ([1]; NCI-H1581, each group (HuFGFR267 50 mg/kg, AZD4547 12.5 mg/kg))?
Its value is “no mice died”.

What about the “Weight (g, mean ± SD)” value ([1]; d0) of the same molecule?
Its value is 18.1 ± 1.2 g.

What about the “Weight (g, mean ± SD)” value ([1]; d3) of the same molecule?
Its value is 19.2 ± 1.0 g.

What about the “Weight (g, mean ± SD)” value ([1]; d7) of the same molecule?
Its value is 19.7 ± 1.0 g.

What about the “Weight (g, mean ± SD)” value ([1]; d10) of the same molecule?
Its value is 20.2 ± 1.2 g.

What about the “Weight (g, mean ± SD)” value ([1]; d14) of the same molecule?
The value was 20.0 ± 1.3 g.

What about the “relative tumor proliferation rate T/C” value ([2]; SNU-16, 25 mg/kg orally once a day for 21 days) of the same molecule?
The value was 18.55%.

What about the “Relative tumor volume RTV (mean ± SD)” value ([2]; SNU-16, 25 mg/kg orally once a day, d0) of the same molecule?
Its value is 1.00 ± 0.00.

What about the “Relative tumor volume RTV (mean ± SD)” value ([2]; SNU-16, 25 mg/kg orally once a day, d3) of the same molecule?
Its value is 1.74 ± 0.58.

And the “Relative tumor volume RTV (mean ± SD)” value ([2]; SNU-16, 25 mg/kg orally once a day, d7)?
Its value is 2.51 ± 0.93.

What about the “Relative tumor volume RTV (mean ± SD)” value ([2]; SNU-16, 25 mg/kg orally once a day, d10) of the same molecule?
Its value is 3.13 ± 1.51.

And the “Relative tumor volume RTV (mean ± SD)” value ([2]; SNU-16, 25 mg/kg orally once a day, d14)?
The value was 3.79 ± 1.93.

What about the “Relative tumor volume RTV (mean ± SD)” value ([2]; SNU-16, 25 mg/kg orally once a day, d17) of the same molecule?
Its value is 3.97 ± 1.58.

What about the “Relative tumor volume RTV (mean ± SD)” value ([2]; SNU-16, 25 mg/kg orally once a day, d21) of the same molecule?
The value was 4.35 ± 2.03.

What about the “relative tumor proliferation rate T/C” value ([2]; SNU-16, 50 mg/kg orally once a day for 21 days) of the same molecule?
The value was 11.66%.

And the “Relative tumor volume RTV (mean ± SD)” value ([2]; SNU-16, 50 mg/kg orally once a day, d0)?
The value was 1.00 ± 0.00.

And the “Relative tumor volume RTV (mean ± SD)” value ([2]; SNU-16, 50 mg/kg orally once a day, d3)?
The value was 1.11 ± 0.42.

What about the “Relative tumor volume RTV (mean ± SD)” value ([2]; SNU-16, 50 mg/kg orally once a day, d7) of the same molecule?
Its value is 0.83 ± 0.49.

What about the “Relative tumor volume RTV (mean ± SD)” value ([2]; SNU-16, 50 mg/kg orally once a day, d10) of the same molecule?
The value was 1.26 ± 0.71.

What about the “Relative tumor volume RTV (mean ± SD)” value ([2]; SNU-16, 50 mg/kg orally once a day, d14) of the same molecule?
The value was 1.89 ± 1.57.

What about the “Relative tumor volume RTV (mean ± SD)” value ([2]; SNU-16, 50 mg/kg orally once a day, d17) of the same molecule?
The value was 2.02 ± 1.63.

What about the “Relative tumor volume RTV (mean ± SD)” value ([2]; SNU-16, 50 mg/kg orally once a day, d21) of the same molecule?
Its value is 2.73 ± 2.82.

And the “body weight of tumor-bearing mice (in words)” value ([2]; SNU-16, HuFGFR267 50 mg/kg and 25 mg/kg groups)?
Its value is “no significant change; also recorded: did not change significantly”.

And the “animal deaths during the experiment” value ([2]; SNU-16, each group (HuFGFR267 50 and 25 mg/kg, AZD4547 12.5 mg/kg))?
Its value is “no mice died”.

And the “Weight (g, mean ± SD)” value ([2]; 25 mg/kg orally once a day, d0)?
Its value is 18.6 ± 1.6 g.

And the “Weight (g, mean ± SD)” value ([2]; 25 mg/kg orally once a day, d3)?
The value was 19.4 ± 1.7 g.

And the “Weight (g, mean ± SD)” value ([2]; 25 mg/kg orally once a day, d7)?
The value was 20.0 ± 1.8 g.

What about the “Weight (g, mean ± SD)” value ([2]; 25 mg/kg orally once a day, d10) of the same molecule?
The value was 20.9 ± 1.8 g.

And the “Weight (g, mean ± SD)” value ([2]; 25 mg/kg orally once a day, d14)?
The value was 21.3 ± 1.7 g.

And the “Weight (g, mean ± SD)” value ([2]; 25 mg/kg orally once a day, d17)?
Its value is 21.2 ± 1.6 g.

What about the “Weight (g, mean ± SD)” value ([2]; 25 mg/kg orally once a day, d21) of the same molecule?
Its value is 21.4 ± 1.8 g.

What about the “Weight (g, mean ± SD)” value ([2]; 50 mg/kg orally once a day, d0) of the same molecule?
Its value is 18.9 ± 1.9 g.

And the “Weight (g, mean ± SD)” value ([2]; 50 mg/kg orally once a day, d3)?
The value was 19.4 ± 2.2 g.

And the “Weight (g, mean ± SD)” value ([2]; 50 mg/kg orally once a day, d7)?
Its value is 19.9 ± 2.4 g.

And the “Weight (g, mean ± SD)” value ([2]; 50 mg/kg orally once a day, d10)?
The value was 20.6 ± 2.3 g.

And the “Weight (g, mean ± SD)” value ([2]; 50 mg/kg orally once a day, d14)?
The value was 20.5 ± 2.2 g.

What about the “Weight (g, mean ± SD)” value ([2]; 50 mg/kg orally once a day, d17) of the same molecule?
Its value is 20.8 ± 2.3 g.

And the “Weight (g, mean ± SD)” value ([2]; 50 mg/kg orally once a day, d21)?
Its value is 20.7 ± 2.2 g.
